In article PMC11969024, “Development of chemokine network inhibitors using combinatorial saturation mutagenesis” (Communications Biology, 2025):
Ends that are not written are not given here.

Experiments:
[1] = lyophilised peptide, data provided by the manufacturer, ref GenScript, cited from earlier work; for Solubility, Water: C-terminal amide
[2] = system: activated T-cells (ATC); experiment: Chemokine dose-response, activated T-cell (ATC) migration; type: cell-based, human; details: mean of biological replicates (3-6)
Procedure: (§1) Cell lines were confirmed mycoplasma free by monthly testing using a MycoAlert^TM kit (LT07-118, Lonza) following the manufacturer’s instructions. THP1 cells: THP1 cells (ECACC 88081201, a human monocyte leukemia cell line[51]) were obtained from ECACC and were cultured in T175 flasks at 0.3-1 × 10^6 cells/mL in Roswell Park Memorial Institute (RPMI) 1640 medium (R0883, Sigma) with 10% FBS (F9665, Sigma) and 5mM L-glutamine (G7513, Sigma), 37 °C, 5% CO2. J:CXCR1 cells: The J:CXCR1 cell line was cultured in the same manner as THP1 cells at 0.15-1 × 10^6 cells per mL[37]. Activated T-cells: T-cells were isolated, activated and expanded as follows. Briefly, density gradient centrifugation using Lymphoprep^TM density gradient medium (07801, […] Technologies) and a SepMate^TM isolation tube (85450, […] Technologies) was used to isolate peripheral blood mononuclear cells from human leukocyte cones. Two rounds of purification using a human CD8 + T-cell isolation kit (480011, BioLegend) were used to isolate CD8 + T-cells from peripheral blood mononuclear cells. Activation of CD8 + T-cells was performed in ImmunoCult^TM-XF T-cell expansion medium (10982, […] Technologies) with an anti-CD3/anti-CD28 T-cell activator at 25 μl/ml (10991, […] Technologies), supplemented with 10 ng/ml recombinant human IL-2 (200-02, PeproTech) with 1% penicillin/streptomycin. T-cells were passaged every 2–3 days in TexMACS medium (130-097-196, Miltenyi Biotec), supplemented with 10 ng/ml human IL-2 (200-05-250, Peprotech) and incubated at 37 °C in 5% CO2. CD8 + T-cells were frozen at day 10-13 after initial activation, at 20×10^6 cell/ml in TexMACS medium supplemented with 10% DMSO (D2650, Sigma) in liquid nitrogen. Activated CD8^+ T-cells were recovered in TexMACs medium at 0.3 × 10^6 cell/ml and incubated at 37 °C in 5% CO2, 24 h prior to use. For buffy coat experiments a mixture of primary human monocytes, granulocytes and lymphocytes was isolated from human buffy coat. Briefly, RBCs were sedimented in HetaSep (07806, […] Technologies) with 1 mL of HetaSep per 5 mL of blood for 15 min at 37 °C. The buffy coat layer was collected from the top and washed in 50 ml MACS buffer (PBS (P4417, Sigma), 0.5% BSA (A7030, Sigma), 0.075% EDTA (E5134, Sigma), pH 7.2), by centrifugation at 2000 g for 10 min at room temperature. The pellet was resuspended in 10 mL of 1x RBC lysis solution (130-094-183, Miltenyi Biotec) and lysed for 10 min at room temperature. The cells were then washed in MACS buffer twice as above. The final pellet was resuspended in 1 mL of MACS buffer per 5 mL of initial blood volume and counted using cell size FSC-H/SSC-H parameters with gate settings previously defined by immunostaining (see below). The leukocytes were then resuspended in assay buffer for cell migration and used within 30 min of isolation.
(§2) Cell counts were determined using an ATTUNE NxT Flow Cytometer with Cytkick autosampler (ThermoFisher), based on cell size parameters FSC-H/SSC-H, with previously defined gate settings. FSC-H/SSC-H gate settings for primary white blood cells from buffy coats were determined using flow cytometry to establish the granulocyte, monocyte and lymphocyte populations (Supplementary Fig. 13). Briefly, cells were labelled with anti-CD3 (Miltenyi Biotec, 130-113-135) to identify the T cell population, anti-CD14 (Miltenyi Biotec, 130-110-578) to identify the monocyte population, and with anti-CD16 (Miltenyi Biotec, 130-113-951) to identify the granulocyte population. Negative control cells were labelled with anti-human IgG1 (Miltenyi Biotec, 130-113-434). All antibodies were allophycocyanin (APC) conjugated. 100,000 white blood cells were added to Eppendorf tubes and centrifuged at 300 g for 3 min. The supernatant was discarded, and the cells resuspended in 98 µL of MACS buffer (1× PBS, 2 mM EDTA and 0.5% BSA, sterile filtered). 2 µl of antibody was added to the cells. […]

[3] = system: panel of 22 biotinylated chemokines; experiment: Saturation (NNK) mutagenesis phage-display selection against biotinylated chemokines, enrichment by NGS; type: binding, human; details: two-sided Dunnett's test; for log2E compared to parental HD2, CXnC chemokines: 7 CXnC chemokines; for log2E compared to parental HD2, all chemokines: three selection rounds, 22 chemokines; for log2E compared to parental HD2, CC chemokines: 15 CC chemokines
Description: 81-mer mutant oligonucleotides replacing NNK at each of the 16 peptide encoding residues were designed with the sequence arms 5’-[…], and […]-3’ at respective ends to enable amplification and cloning. Oligonucleotides (Genscript) were individually amplified and cloned into plasmid prSTOP4Nsi (described in[37]). prSTOP4Nsi was amplified using primers (Sigma): […]
Oligonucleotides were amplified using primers (Sigma): oligo_fwd: 5’-[…] and oligo_rev2: 5’-[…]. The PCR products were cloned into prSTOP4Nsi plasmid using NEB Builder HiFi Assembly (E5520, NEB) following instructions of the manufacturer. The vector pool was used to transform electrocompetent ElectroMAX™ DH5α-E™ cells (11319019, Invitrogen). Plasmid DNA was harvested by MaxiPrep (GeneJet Plasmid Maxiprep Kit (K0491, Thermo Scientific)). DNA was transformed into SS320 phage display electrocompetent cells (60512, Lucigen), following the manufacturer’s protocol. Following electroporation, cells were resuspended in 950 μL recovery media and transferred to 50 mL Falcon tubes. 100 μL 10^11 CFU/mL M13KO7 helper phage (N0315S, NEB) was added, and tubes shaken at 37 °C, 220 RPM, 1 h. 1 mL recovery culture was added to 2YT medium containing +50ug/mL carbenicillin (C9231, Sigma) and 25ug/mL kanamycin (K1377, Sigma), and grown overnight at 37 °C, 220 RPM. Phage was precipitated from culture supernatant by adding 22.5 mL of supernatant to 4.5 mL 20% PEG 8000 (89510, Sigma)/2.5 M NaCl (S9625, Sigma), incubating on ice for 30 min, and centrifuging at 12857 g, 4 °C, 10 min. The phage pellet was resuspended in 1 mL of PBT (PBS (P4417, Sigma), BSA (A7030, Sigma) 0.20%, Tween 20 (P1379, Sigma) 0.05%). Undissolved particulate matter was removed by centrifugation at 15871 g, 4 °C, 10 min. Glycerol (G5516, Sigma, 10% final (v/v) was added, and aliquots stored at −80 °C. A schematic of phage-display library construction is provided in Supplementary Fig. 12.
Phage display screening was performed as described. Experiments were performed in 96-well plates (Greiner Bio-One, 655180). Biotinylated chemokines or complement C5A (1μg, Almac or Protein Foundry) were incubated overnight at 4 °C with shaking at 250 RPM with 5μl streptavidin-coated magnetic beads (Dynabeads™ M-280 Streptavidin, Invitrogen, 11205D) in 100 μl PBS. Chemokine-bound beads were blocked for two hours in 200μl blocking buffer (PBS (phosphate-buffered saline, Sigma, P4417) + 0.2% BSA (bovine serum albumin, Sigma, A7030) with shaking at 250 RPM. Phage library (100μL, 10^10 CFU/mL) was bound to blocked beads for two hours at room temperature with shaking at 250 RPM. Beads were washed 15 times with PT buffer (PBS + 0.05% Tween 20 (Sigma, P1379)) to remove unbound phage then transferred to a fresh plate. Beads were incubated with 100μL phage-resistant Omnimax E. coli (Invitrogen, A10469) at optical density (OD600) 0.6-0.8, shaken at 37 °C for 30 min. Following this 10 µL M13K07 helper phage (NEB, N0315S, final concentration 10^10 CFU/mL) was added and shaken at 37 °C for 45 min. Cells were transferred to 1 mL 2YT medium (at pH7, MP Biomedicals™, 113012031, supplemented with 150 µg/mL carbenicillin (Sigma, C9231) and 75 µg/mL kanamycin (Sigma, K1377) in a 96-deep well block with V-bottom (Corning, CLS3960) and grown with overnight shaking at 37 °C, 200 RPM. Plates were either centrifuged at 2000g (4 °C, 30 min) or transferred to screw cap tubes and pelleted by centrifugation at 4000 g and 4 °C for 15 min. 540 µL of supernatant was transferred to a new 96-deep well plate, 60 µL of 10×PBT (10×PBS + 2% BSA + 0.5% Tween 20) added and stored at 4 °C for subsequent rounds. Phage display was carried out for three rounds. A schematic of phage-display library screening is provided in Supplementary Fig. 12.
We amplified inserts from the input library and from the selected phage population directly from phage by PCR using primers: 5’-[…] and 5’-[…] (Life Technologies). […]

[4] = system: activated CD8+T-cells (ATC); experiment: Activated T-cell (ATC) migration induced by individual chemokines, inhibition by peptide; type: cell-based, human; details: peptide 10 uM; chemokines at EC80; Dunnett's test
Procedure: as §1, §2

[5] = system: THP1 cells; experiment: Chemokine dose-response, THP1 cell migration; type: cell-based, human; details: mean of biological replicates (2-7); for Mean pEC80: 3-parameter log-logistic fit, maximum fixed at 100%
Procedure: as §1, §2

Substance: DDDDWWDYAPLTCYFD [HD2CM526]
- Solubility, Water [1]: Insoluble
- Solubility, DMSO [1]: Soluble
- Solubility, PBS [1]: Insoluble

Substance: CXCL10: human chemokine, Peprotech 300-12
- Mean pEC50 [2]: 7.87 [M]
- Mean pEC80 [2]: 7.50 [M]

Substance: EEDDYTDYAPLTCYFT [HD2A7D, HD2 point mutant]
- log2E compared to parental HD2, CXnC chemokines [3]: significant improvement
- log2E compared to parental HD2, all chemokines [3]: significantly improved

Substance: CXCL9: human chemokine, Peprotech 300-26
- Mean pEC50 [2]: 7.40 [M]
- Mean pEC80 [2]: 7.22 [M]

Substance: EEDDYTAYAPLTCYFT-NH2 [HD2]
- Solubility, Water [1]: Insoluble
- Solubility, DMSO [1]: Soluble
- Solubility, PBS [1]: Insoluble

Substance: EEDDYTAYAPITCYFT [HD2L11I, HD2 point mutant]
- log2E compared to parental HD2, CC chemokines [3]: significant improvement
- log2E compared to parental HD2, all chemokines [3]: significantly improved
- inhibition of CCL19, CCL21, CXCL9, and CXCL11-induced migration of ATCs compared to parental HD2 [4]: significant improvement in inhibition

Substance: CXCL11: human chemokine, Peprotech 300-46
- Mean pEC50 [2]: 8.25 [M]
- Mean pEC80 [2]: 7.99 [M]

Substance: CCL7: human chemokine, Peprotech 300-17
- Mean pEC80 [5]: 8.02 [M]
- Mean pEC50 [5]: 8.37 [M]

Substance: DEDDWDAYAPIWCYFT-NH2 [HD2CM304]
- Solubility, Water [1]: Insoluble
- Solubility, DMSO [1]: Soluble
- Solubility, PBS [1]: Insoluble

Substance: DEDDWDDYAPITCYFT-NH2 [HD2CM307]
- Solubility, Water [1]: Insoluble
- Solubility, DMSO [1]: Insoluble
- Solubility, HCOOH [1]: Soluble
- Solubility, PBS [1]: Insoluble

Substance: CXCL12: human chemokine, Peprotech 300-28A
- Mean pEC50 [2]: 8.93 [M]
- Mean pEC80 [2]: 8.54 [M]

Substance: CCL19: human chemokine, Peprotech 300-29B
- Mean pEC50 [2]: 7.91 [M]
- Mean pEC80 [2]: 7.64 [M]

Substance: CCL5: human chemokine, Peprotech 300-06
- Mean pEC80 [5]: 8.36 [M]
- Mean pEC50 [5]: 8.65 [M]

Substance: TLETDTFYECPDAYAY [HD2SCR, reference compound]
- Solubility, Water [1]: Insoluble
- Solubility, DMSO [1]: Soluble
- Solubility, PBS [1]: Insoluble

Substance: CCL3: human chemokine, Peprotech 300-08
- Mean pEC80 [5]: 9.31 [M]
- Mean pEC50 [5]: 9.64 [M]

Substance: EEDDYDAYAPLTCYFT [HD2T6D, HD2 point mutant]
- log2E compared to parental HD2, CXnC chemokines [3]: significant improvement
- log2E compared to parental HD2, CC chemokines [3]: significant improvement
- log2E compared to parental HD2, all chemokines [3]: significantly improved

Substance: CCL2: human chemokine, Peprotech 300-04
- Mean pEC80 [5]: 8.35 [M]
- Mean pEC50 [5]: 8.73 [M]
